Test results from the supplement of paper PMC11451515.

Test system: SEM cells
Assay: cell viability relative to DMSO control; higher = less cytotoxic
Details: 48 h
Outline: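 Leukemia cells (NOMO1 or SEM, 500 cells/well; P12-Ichikawa, 1000 cells/well) were seeded in 5 μl in 1536-well plates after at least four passages of adaptation to each medium. They received library compounds in DMSO by pin dosing, 11 threefold points from 47 μM to 0.79 nM. Luminescence with CellTiter-Glo One was read after 48 h at 37°C. Viability is stated per plate relative to DMSO wells, with cell-free wells as background.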

[1] = HPLM + 10% dialyzed FBS, 0.000781 µM
[2] = HPLM + 10% dialyzed FBS, 0.00234 µM
[3] = HPLM + 10% dialyzed FBS, 0.00702 µM
[4] = HPLM + 10% dialyzed FBS, 0.0211 µM
[5] = HPLM + 10% dialyzed FBS, 0.0632 µM
[6] = HPLM + 10% dialyzed FBS, 0.19 µM
[7] = HPLM + 10% dialyzed FBS, 0.569 µM
[8] = HPLM + 10% dialyzed FBS, 1.71 µM
[9] = HPLM + 10% dialyzed FBS, 5.12 µM
[10] = HPLM + 10% dialyzed FBS, 15.4 µM
[11] = HPLM + 10% dialyzed FBS, 46.1 µM
[12] = RPMI 5 mM glucose + 10% FBS, 0.000781 µM
[13] = RPMI 5 mM glucose + 10% FBS, 0.00234 µM
[14] = RPMI 5 mM glucose + 10% FBS, 0.00702 µM
[15] = RPMI 5 mM glucose + 10% FBS, 0.0211 µM
[16] = RPMI 5 mM glucose + 10% FBS, 0.0632 µM
[17] = RPMI 5 mM glucose + 10% FBS, 0.19 µM
[18] = RPMI 5 mM glucose + 10% FBS, 0.569 µM
[19] = RPMI 5 mM glucose + 10% FBS, 1.71 µM
[20] = RPMI 5 mM glucose + 10% FBS, 5.12 µM
[21] = RPMI 5 mM glucose + 10% FBS, 15.4 µM
[22] = RPMI 5 mM glucose + 10% FBS, 46.1 µM
[23] = RPMI 5 mM glucose + 10% dialyzed FBS, 0.000781 µM
[24] = RPMI 5 mM glucose + 10% dialyzed FBS, 0.00234 µM
[25] = RPMI 5 mM glucose + 10% dialyzed FBS, 0.00702 µM
[26] = RPMI 5 mM glucose + 10% dialyzed FBS, 0.0211 µM
[27] = RPMI 5 mM glucose + 10% dialyzed FBS, 0.0632 µM
[28] = RPMI 5 mM glucose + 10% dialyzed FBS, 0.19 µM
[29] = RPMI 5 mM glucose + 10% dialyzed FBS, 0.569 µM
[30] = RPMI 5 mM glucose + 10% dialyzed FBS, 1.71 µM
[31] = RPMI 5 mM glucose + 10% dialyzed FBS, 5.12 µM
[32] = RPMI 5 mM glucose + 10% dialyzed FBS, 15.4 µM
[33] = RPMI 5 mM glucose + 10% dialyzed FBS, 46.1 µM

Structure (SMILES)	cell viability [1]	cell viability [2]	cell viability [3]	cell viability [4]	cell viability [5]	cell viability [6]	cell viability [7]	cell viability [8]	cell viability [9]	cell viability [10]	cell viability [11]	cell viability [12]	cell viability [13]	cell viability [14]	cell viability [15]	cell viability [16]	cell viability [17]	cell viability [18]	cell viability [19]	cell viability [20]	cell viability [21]	cell viability [22]	cell viability [23]	cell viability [24]	cell viability [25]	cell viability [26]	cell viability [27]	cell viability [28]	cell viability [29]	cell viability [30]	cell viability [31]	cell viability [32]	cell viability [33]
N#CC[C@H](C1CCCC1)n1cc(-c2ncnc3[nH]ccc23)cn1	100%	104%	103%	103%	94.1%	85.9%	103%	90.1%	63.7%	39.6%	24.5%	103%	111%	86.6%	108%	109%	96.1%	92.7%	107%	50%	23%	19.8%	98.9%	97.7%	98.1%	97.9%	113%	99.6%	96.8%	87.3%	63.3%	31.6%	26.3%
CCCCCN(CCC12CC3CC(CC(C3)C1)C2)C(=O)NCCCc1ccncc1	96.2%	110%	108%	106%	102%	109%	107%	106%	107%	102%	89.9%	97.1%	92.9%	100%	106%	112%	110%	97.3%	114%	96.9%	108%	100%	86.9%	96%	106%	110%	105%	107%	106%	116%	120%	90.6%	97%
Nc1nc(N)c(N=O)c(OCC2CCCCC2)n1	71.5%	92.1%	54.6%	88.7%	91.9%	100%	89.4%	75.5%	40.8%	39%	28.2%	94.7%	84.2%	56.6%	91.4%	97.2%	93.3%	96.7%	74%	47.8%	38.1%	27.4%	81.6%	86.2%	71.4%	86.8%	96%	100%	102%	79%	56.5%	45.2%	32%
Cc1cnc(Nc2ccc(CN3CCOCC3)cc2)nc1Nc1cccc([S+](=O)([O-])NC(C)(C)C)c1	65%	83.2%	77.8%	72.9%	83.4%	39.3%	58%	23.1%	5.99%	2.23%	1.78%	87.5%	86.9%	102%	87.8%	83.5%	44%	59.3%	19.4%	5.03%	2.53%	2.58%	69.5%	81.9%	82.4%	86%	84.2%	37.7%	20.7%	16.5%	6.18%	2.42%	2.01%
CC(C)(C)OC(=O)Nc1ccc(-c2cc(C(=O)NCCCCCCC(=O)NO)no2)cc1	87.5%	87.7%	95.7%	102%	77.4%	99.6%	102%	72.4%	33.5%	4.09%	4.02%	94.9%	88.1%	102%	101%	74.7%	101%	107%	44.2%	30.2%	4.09%	4.76%	84.3%	83.2%	79.8%	88.9%	79.7%	90.7%	87.7%	28.1%	20.1%	3.52%	3.79%
C[C@H]1Oc2cc(cnc2N)-c2c(nn(C)c2C#N)CN(C)C(=O)c2ccc(F)cc21	111%	138%	114%	118%	109%	126%	124%	121%	117%	107%	93.7%	110%	108%	110%	109%	78.1%	85.3%	102%	110%	97.4%	81.5%	60.3%	118%	128%	115%	130%	131%	133%	145%	132%	129%	122%	116%
CC(C)n1cnc2c(NCCc3ccc(O)cc3)nc(-c3csc4ccccc34)nc21	105%	91%	99.5%	114%	114%	139%	116%	122%	122%	39.8%	10.4%	111%	103%	102%	108%	101%	125%	129%	99.2%	77.2%	8.37%	8.04%	106%	97.7%	103%	110%	114%	127%	132%	122%	57.7%	11.4%	7.89%
OCCN(CCO)c1nc(N2CCCCC2)c2nc(N(CCO)CCO)nc(N3CCCCC3)c2n1	108%	111%	109%	109%	118%	119%	117%	114%	99.3%	89.9%	82.4%	120%	111%	118%	120%	127%	124%	111%	104%	111%	103%	72.4%	128%	120%	113%	104%	121%	102%	143%	131%	116%	106%	67.8%
CN(C(Cc1ccc(O[S+](=O)([O-])c2cccc3cnccc23)cc1)C(=O)N1CCN(c2ccccc2)CC1)[S+](=O)([O-])c1cccc2cnccc12 (centres undefined)	102%	110%	112%	105%	110%	108%	114%	95.3%	94.6%	74.2%	39.1%	120%	110%	108%	109%	108%	99.7%	108%	96.9%	95%	46.2%	22.9%	110%	120%	100%	119%	114%	120%	114%	110%	90.3%	67.1%	34.5%
C[N]1N=CC=C1C/2=C(\C)N(C(=O)C(=C2)/C(=O)NCC3=NC=C(C=C3)[S+](C)([O-])=O)C4=CC=CC(=C4)C(F)(F)F	96%	98.3%	100%	103%	105%	103%	99.5%	105%	91.2%	95.4%	77.9%	–	–	–	–	–	–	–	–	–	–	–	90%	105%	120%	126%	115%	112%	108%	115%	100%	107%	76%
COc1ccc([S+](=O)([O-])Nc2cccnc2Nc2ccc(O)cc2)cc1	124%	127%	114%	116%	127%	115%	123%	96.1%	20.9%	25.5%	21.6%	76.2%	82.1%	65.8%	86.4%	77.6%	82.6%	77.1%	79.1%	36.2%	17.5%	13.5%	114%	109%	109%	105%	102%	124%	113%	96.5%	47.5%	23.4%	20.2%
CN1CCN(CCCN2c3ccccc3Sc3ccc(Cl)cc32)CC1.O=C(O)/C=C\C(=O)O.O=C(O)/C=C\C(=O)O	105%	112%	110%	113%	108%	112%	104%	114%	112%	117%	82.2%	102%	113%	118%	111%	129%	122%	119%	121%	119%	115%	68.6%	101%	99.7%	128%	113%	115%	122%	119%	133%	133%	116%	104%
COC(=O)Nc1nc2ccc([S+]([O-])c3ccccc3)cc2[nH]1 (centres undefined)	77.9%	97.3%	96.5%	100%	99.5%	94.5%	87.9%	94.4%	84%	59.3%	57.7%	113%	114%	109%	104%	116%	111%	107%	121%	89.6%	67.7%	63%	106%	112%	113%	111%	124%	122%	105%	122%	102%	59.6%	69.4%
CN(C)CCc1c[nH]c2ccc(C[S+](=O)([O-])N3CCCC3)cc12	78.9%	97.3%	91.4%	104%	97.1%	97.5%	94%	109%	97.8%	86.8%	83.6%	83.9%	93.4%	85.7%	93.7%	101%	104%	96.8%	101%	87.2%	60.5%	67.4%	87.5%	96%	91.5%	98.4%	107%	96.2%	88.5%	96.7%	84.4%	77.2%	65%
C=CC(=O)Nc1ccc2ncnc(Nc3ccc(OCc4cccc(F)c4)c(Cl)c3)c2c1	75.8%	82.7%	83.9%	84.4%	103%	91.2%	89.7%	101%	77.5%	21.2%	18.1%	102%	105%	115%	117%	95.3%	110%	118%	116%	76.1%	14.6%	12.5%	85.5%	87.5%	88.4%	92.4%	102%	92.4%	93%	107%	77%	19.9%	11.1%
